From PubChem BioAssay (NCI) come the findings set out here.

Values joined by “and” are separate entries in the source; they are usually repeats but may differ in a detail not shown here. Equal values may be shown once.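 Step 1: Grow cells in 96-well plates. Step 2: Expose to compound for 48 hours at 5 concentrations. Step 3: Interpolate endpoints linearly; if unreached, use highest concentration. GI50: concentration for 50% inhibition of growth. TGI: total growth inhibition.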

Some test systems named below: XF 498 CNS; DMS 273 small cell lung; KM20L2 colon; NCI-H226 lung; LXFL 529 NSCLC; MCF7 breast; MDA-MB-231 breast; HS 578T breast; BT-549 breast; MDA-MB-435.
Common to all, as to experiment: NCI tumour cell line growth inhibition, 48 h

In the case of `Clc1cc(Cl)c2ns[s+]c2c1Cl`, the TGI in the test on XF 498 CNS, in the test on DMS 273 small cell lung, with KM20L2 colon, in the test with NCI-H226 lung and in the test on LXFL 529 NSCLC was over 100 µM in each case.
For `CCOC(=O)C1SC(=Nc2ccc(C)c(C)c2)N=C1C` (stereo unspecified), the TGI in the test on XF 498 CNS, in the test with DMS 273 small cell lung, in the test with KM20L2 colon, in the test on NCI-H226 lung and in the test on LXFL 529 NSCLC was over 100 µM throughout.
`COc1ccc2c3c([nH]c2c1[N+](=O)[O-])C(C)N(C)CC3` (stereo unspecified): the TGI in the test on XF 498 CNS, in the test with DMS 273 small cell lung, in the test on KM20L2 colon, in the test on NCI-H226 lung and in the test on LXFL 529 NSCLC was over 100 µM in each case.
Consider `COc1cc(Cc2nccc3cc(OC)c(OC)cc23)c(C(C)=O)cc1OC`, for which the TGI with XF 498 CNS was 300 µM; with MCF7 breast, 300 µM; with DMS 273 small cell lung it was 300 µM and > 750 µM; in the test on KM20L2 colon it was 200 µM and > 750 µM; in the test with LXFL 529 NSCLC, over 750 µM. For the same compound, the GI50 in the test on DMS 273 small cell lung and in the test on KM20L2 colon was over 750 µM throughout.
Regarding `COC(=O)C(CC(=O)Nc1ccc(C)cc1)C(=O)C(=O)Nc1c(C(C)C)cccc1C(C)C` (stereo unspecified), the TGI with XF 498 CNS, in the test with KM20L2 colon, in the test with NCI-H226 lung and in the test with LXFL 529 NSCLC was over 100 µM in each case.
Consider `Cc1cc(NS(=O)(=O)c2ccc(Nc3c4ccccc4nc4c(C(=O)N5CCN(CCO)CC5)cccc34)cc2)no1`, for which the TGI with XF 498 CNS, in the test on DMS 273 small cell lung, with KM20L2 colon, in the test with NCI-H226 lung and with LXFL 529 NSCLC was over 100 µM each time.
With `CCCC1=C(CC)C(C(=O)Nc2c(C)cccc2C)=NC(S)N1` (stereo unspecified), the TGI in the test on XF 498 CNS, in the test on DMS 273 small cell lung, with KM20L2 colon, in the test with NCI-H226 lung and in the test on LXFL 529 NSCLC was over 100 µM each time.
For the compound `O=C(Nc1ccccc1-c1nc2ccccc2[nH]c1=O)c1ccccc1`, the TGI is 49.9 µM with XF 498 CNS; 52.6 µM with DMS 273 small cell lung; over 100 µM with KM20L2 colon; 60.1 µM in the test with NCI-H226 lung; 69.2 µM in the test with LXFL 529 NSCLC.
As to `CC1=CC(C)(C)N=C2SC(c3ccc(N)cc3)=NN12`, the TGI in the test with XF 498 CNS was over 100 µM; in the test on DMS 273 small cell lung, over 61.2 µM; in the test with KM20L2 colon, over 100 µM; in the test with NCI-H226 lung, over 100 µM; in the test with LXFL 529 NSCLC, over 77.6 µM.
With `COC(=O)C12CC3CC(CC(C(=O)O)(C3)C1)C2`, the TGI in the test with XF 498 CNS, with DMS 273 small cell lung, in the test on KM20L2 colon and with LXFL 529 NSCLC was over 100 µM each time.
As to `O=C1c2ccccc2C(=O)C1(O)c1c[nH]c2ccccc12`, the TGI in the test on XF 498 CNS, with KM20L2 colon and in the test on LXFL 529 NSCLC was over 100 µM each time.
For the compound `[N-]=[N+]=C1C(=O)NN=C1c1ccccc1`, the TGI with XF 498 CNS, in the test on DMS 273 small cell lung, in the test with KM20L2 colon, in the test on NCI-H226 lung and in the test on LXFL 529 NSCLC was over 100 µM in each case.
As to `CNC(=S)/N=C(\N)N(C)C`, the TGI with XF 498 CNS, in the test on DMS 273 small cell lung, in the test with KM20L2 colon, with NCI-H226 lung and with LXFL 529 NSCLC was over 100 µM each time.
On to `CN(C)CCC1(C2=CCCC2)CC/C(=C\c2ccc(Cl)cc2)C1=O` (stereo unspecified), for which the TGI was determined as 19.1 µM with XF 498 CNS; 24.8 µM with DMS 273 small cell lung; 7.82 µM with KM20L2 colon; 28.1 µM in the test on NCI-H226 lung; 21.4 µM in the test on LXFL 529 NSCLC.
As to `CCOC(=O)/C(C)=C(/O)C(=O)OCC`, the TGI with XF 498 CNS, in the test on DMS 273 small cell lung, in the test with NCI-H226 lung and in the test with LXFL 529 NSCLC was over 100 µM in each case.
In the case of `CCOC(=O)CC(C)C1(C(=O)OCC)CCCCC1=O` (stereo unspecified), the TGI is over 100 µM in the test on XF 498 CNS; 32.5 µM in the test with DMS 273 small cell lung; over 100 µM in the test on KM20L2 colon; over 100 µM in the test with NCI-H226 lung; over 100 µM with LXFL 529 NSCLC.
Regarding `COc1cc(/C=C/c2ccc(OC)c(O)c2)cc(OC)c1`, the TGI with XF 498 CNS was determined as 9.52 µM; with DMS 273 small cell lung, 34.1 µM; in the test on KM20L2 colon, 47.5 µM; in the test with NCI-H226 lung it was 16.7 µM; in the test with LXFL 529 NSCLC it was 39.3 µM.
On to `Cc1nnc(NS(=O)(=O)c2ccc(N=Nc3cc(N=Nc4ccc(S(=O)(=O)Nc5nnc(C)s5)cc4)c4c(NC(=O)C(Cl)Cl)cccc4c3OC(=O)C(Cl)Cl)cc2)s1` (tested in a mixture with another compound), for which the TGI with XF 498 CNS is 92.9 µM; in the test with DMS 273 small cell lung, 39.8 µM; in the test with KM20L2 colon, over 100 µM; in the test on LXFL 529 NSCLC, over 100 µM.
For `CCCCCCCCCCCCCCCC(=O)OCC(C[As](=O)(O)O)OC(=O)CCCCCCCCCCCCCCC` (stereo unspecified), the TGI was over 100 µM in the test on MDA-MB-231 breast; over 100 µM in the test on HS 578T breast; over 100 µM in the test on BT-549 breast; 70.9 µM with XF 498 CNS; over 100 µM in the test with MCF7 breast; over 100 µM in the test with DMS 273 small cell lung. Besides, the TGI in the test on KM20L2 colon, with NCI-H226 lung, in the test with LXFL 529 NSCLC and in the test with MDA-MB-435 was over 100 µM each time.
Regarding `Cc1cc(N(CCC#N)CCC#N)ccc1/C=C(\NC(=O)/C=C/c1ccccc1)C(N)=O`, the TGI in the test with XF 498 CNS, with DMS 273 small cell lung, with KM20L2 colon, in the test with NCI-H226 lung and in the test on LXFL 529 NSCLC was over 100 µM in each case.
Take `O=C(Nc1cc(Cl)c(Cl)cc1Cl)C(=O)C1C(=O)NC(=S)NC1=O`: the TGI with XF 498 CNS, in the test on DMS 273 small cell lung, with KM20L2 colon, with NCI-H226 lung and in the test with LXFL 529 NSCLC was over 100 µM each time.
As for `CCOC(=O)N[C@@H]1C(CC(=O)OC)O[C@H]2OC(C)(C)O[C@H]21` (stereo partly specified), the TGI in the test on XF 498 CNS, in the test with DMS 273 small cell lung, with KM20L2 colon, with NCI-H226 lung and with LXFL 529 NSCLC was over 100 µM each time.
